Like-named read-outs stand apart in the source and are kept apart here.
Molecular target: PKM2 (Homo sapiens, UniProt P14618)
Assay: PKM2 activation biochemical assay (AC50 / max. response vs fructose 1,6-bisphosphate)
Conditions: for Max. Resp. (%): % maximum response in a biochemical assay as compared with Fructose 1,6-bisphosphate
[1] = biochemical assay, read-out: PKM2 AC50

Sequence of PKM2 (P14618 whole entry): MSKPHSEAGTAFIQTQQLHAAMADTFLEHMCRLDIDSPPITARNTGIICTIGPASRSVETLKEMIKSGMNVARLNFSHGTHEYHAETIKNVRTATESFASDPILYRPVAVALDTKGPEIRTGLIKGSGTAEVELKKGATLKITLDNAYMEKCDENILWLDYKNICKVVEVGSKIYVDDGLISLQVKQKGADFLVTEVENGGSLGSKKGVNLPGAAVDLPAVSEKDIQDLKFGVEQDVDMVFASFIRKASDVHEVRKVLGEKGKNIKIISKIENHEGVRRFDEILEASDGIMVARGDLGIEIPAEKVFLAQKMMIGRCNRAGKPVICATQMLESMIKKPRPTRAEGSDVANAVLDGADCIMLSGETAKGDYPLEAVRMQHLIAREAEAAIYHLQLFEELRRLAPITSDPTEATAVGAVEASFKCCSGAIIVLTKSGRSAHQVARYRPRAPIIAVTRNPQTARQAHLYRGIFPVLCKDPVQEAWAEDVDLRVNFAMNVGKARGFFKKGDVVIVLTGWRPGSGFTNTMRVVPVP

Structure (SMILES) | Max. Resp. (%) | AC50 [1] [nM] | AC50 [nM]
O=C(c1cc(C(F)(F)F)n[nH]1)N(CCC1CCS(=O)(=O)C1)Cc1ncccc1Cl (stereo not shown) [Compound 92] | 74% | 1290 | 
CCN(CC)CCN(Cc1ccccc1Cl)C(=O)c1cc(C(F)(F)F)n[nH]1 [Compound 159] | 100% | 73 | 
Cc1sc2nc(Cn3cnc4ccccc43)cc(=O)n2c1C [PP14] |  | 86 | 
Nc1cccc(CN(CCN2CCCCCC2)C(=O)c2cc(C(F)(F)F)n[nH]2)c1F [Compound 216] | 100% | 117 | 
CC(C)OCCN(Cc1ccccc1Cl)C(=O)c1cc(C(F)(F)F)n[nH]1 [Compound 37] | 37% | 42000 | 
O=C(CCSC(=S)NCc1cccnc1)c1c[nH]c2ncccc12 [PMA32] | 182% | 1000 | 
O=C(c1cc(C(F)(F)F)n[nH]1)N(CCC1CC1)Cc1ccccc1F [Compound 149] | 100% | 2000 | 
CCCC(C)N(Cc1ccccc1)C(=O)c1cc(C(F)(F)F)n[nH]1 (stereo not shown) [Compound 16] | 22% | 74800 | 
COc1ccc2nc(Cn3cnc4ccccc43)cc(=O)n2c1 [PP12] |  | 470 | 
CNCc1c[nH]c2cccc(CN(CC3CCC3)C(=O)c3cc(Br)n[nH]3)c12 [Compound 121] |  |  | 23000
O=C(c1cc(C(F)(F)F)n[nH]1)N(Cc1ccccc1F)CC1COC1 [Compound 20] | 70% | 12000 | 
CC1CCCN(CCN(Cc2ccccc2Cl)C(=O)c2cc(C(F)(F)F)n[nH]2)C1 (stereo not shown) [Compound 191] | 100% | 29 | 
CCN(CCN(Cc1ccccc1Cl)C(=O)c1cc(C(F)(F)F)n[nH]1)C(C)C [Compound 204] | 53% | 880 | 
O=C(c1cc(C(F)(F)F)n[nH]1)N(CCC1CCS(=O)(=O)C1)Cc1cccnc1 (stereo not shown) [Compound 90] | 24% | 52000 | 
O=C(CCSC(=S)NCc1cccnc1)c1c[nH]c2ccccc12 [PMA31] |  | > 20000 | 
COCCN(Cc1ccc(O)cc1F)C(=O)c1cc(C(F)(F)F)n[nH]1 [Compound 142] | 100% | 1190 | 
Cc1ccc2nc(Cn3c(C)nc4ccccc43)cc(=O)n2c1 [PP2] | 73% |  | 
O=C(CCSC(=S)NCc1cccnc1)c1ccc(C(F)(F)F)cc1 [PMA17] | 23% | > 20000 | 
O=C(c1cc(C(F)(F)F)n[nH]1)N(CCN1CCS(=O)(=O)CC1)Cc1c(F)cccc1F [Compound 109] | 94% | 4200 | 
CCCN(CC)CCN(Cc1c(N)cccc1F)C(=O)c1cc(C(F)(F)F)n[nH]1 [Compound 240] | 100% | 68 | 
O=C(c1cc(C(F)(F)F)n[nH]1)N(CCC1CCS(=O)(=O)C1)Cc1c(F)cccc1F (stereo not shown) [Compound 66] | 102% |  | 375

Structure (SMILES) | Max. Resp. (%) | AC50 [1] [nM] | AC50 [nM]
O=C(CCSC(=S)NCc1cccnc1)c1ccc(F)cc1 [PMA10] | 48% | 9830 | 
O=C(c1cc(C(F)(F)F)n[nH]1)N(CCN1CCCC1)Cc1cccc2nc[nH]c12 [Compound 163] | 100% | 1080 | 
O=C(c1cc(C(F)(F)F)n[nH]1)N(Cc1cccc2[nH]ccc12)NC1CCC1 [Compound 135] | 100% | 68 | 
O=C(c1cc(C(F)(F)F)n[nH]1)N(CCC1CCNCC1)Cc1ccccc1F [Compound 98] | 56% |  | 2050
O=C(c1cc(Br)n[nH]1)N(Cc1ccc(O)cc1Cl)CC1CCC1 [Compound 125] | 100% | 35 | 
O=C(c1cc(C(F)(F)F)n[nH]1)N(Cc1ccccc1Cl)C1CCOCC1 [Compound 35] | 59% |  | 5080
O=C(CCSC(=S)NCc1cccnc1)c1cc[nH]c1 [PMA35] | 30% | 4340 | 
O=C(c1cc(C(F)(F)F)n[nH]1)N(CCN1CCS(=O)(=O)CC1)Cc1ccccc1Cl [Compound 107] | 85% | 873 | 
O=c1cc(Cn2cnc3ccccc32)nc2sccn12 [PP18] |  | 266 | 
O=C(c1cc(C(F)(F)F)n[nH]1)N(Cc1ccccc1Cl)CC1CCS(=O)(=O)CC1 [Compound 72] | 22% | 19700 | 
CO[C@H]1CC[C@H](N(Cc2cccc(N)c2)C(=O)c2cc(C(F)(F)F)n[nH]2)CC1 [Compound 54] | 93% | 365 | 
O=C(CCSC(=S)NCc1cccnc1)c1cccs1 [PMA26] | 20% | > 20000 | 
Nc1ccccc1CN(CCC1CCS(=O)(=O)C1)C(=O)c1cc(C(F)(F)F)n[nH]1 (stereo not shown) [Compound 77] | 43% |  | 34800
O=C(c1cc(Br)n[nH]1)N(Cc1cccc2[nH]c(=O)sc12)CC1CCC1 [Compound 10] | 127% | 2740 | 
CCN(CC)CCN(Cc1cccc(N)c1)C(=O)c1cc(C(F)(F)F)n[nH]1 [Compound 154] | 100% | 1430 | 
O=C(c1cc(C(F)(F)F)n[nH]1)N(CCC1CCSCC1)Cc1ccc(O)cc1F [Compound 86] | 98% | 93 | 
O=C(c1cc(C(F)(F)F)n[nH]1)N(Cc1ccccc1F)C1CCOCC1 [Compound 22] | 99% | 1520 | 
NCCN(Cc1ccc(O)cc1F)C(=O)c1cc(C(F)(F)F)n[nH]1 [Compound 133] | 100% | 1270 | 
CCC1CCN(CCN(Cc2ccccc2Cl)C(=O)c2cc(C(F)(F)F)n[nH]2)CC1 [Compound 199] | 100/100% | 100 | 
O=C(c1cc(C(F)(F)F)n[nH]1)N(CCC1CC1)Cc1ccc(O)cc1F [Compound 140] | 100% | 32 | 
Nc1cccc(CN(CCN2CCS(=O)(=O)CC2)C(=O)c2cc(C(F)(F)F)n[nH]2)c1 [Compound 112] | 91% | 1070 | 

Structure (SMILES) | Max. Resp. (%) | AC50 [1] [nM] | AC50 [nM]
O=C(c1cc(C(F)(F)F)n[nH]1)N(CCO)Cc1ccc(O)cc1F [Compound 137] | 70% | 6200 | 
O=C(c1cc(C(F)(F)F)n[nH]1)N(Cc1cccc2[nH]c(=O)sc12)CC1CCC1 [Compound 7] | 87% | 3450 | 
O=C(c1cc(C(F)(F)F)n[nH]1)N(CCC1CCCO1)Cc1ccccc1F (stereo not shown) [Compound 46] | 70% | 13400 | 
CC1CCN(CCN(Cc2ccccc2Cl)C(=O)c2cc(C(F)(F)F)n[nH]2)CC1 [Compound 190] | 100% | 42 | 
CN(C)CCN(Cc1ccccc1Cl)C(=O)c1cc(C(F)(F)F)n[nH]1 [Compound 187] | 100% | 295 | 
CCN(CC)CCN(Cc1cccc(Cl)c1Cl)C(=O)c1cc(C(F)(F)F)n[nH]1 [Compound 167] | 100% | 186 | 
O=C(c1cc(C(F)(F)F)n[nH]1)N(CCC1CCCOC1)Cc1ccccc1Cl (stereo not shown) [Compound 36] | 88% | 1220 | 
O=C(c1cc(C2CC2)n[nH]1)N(Cc1ccc(O)cc1F)CC1CCC1 [Compound 246] | 85% |  | 
O=C(c1cc(C(F)(F)F)n[nH]1)N(CCC1CCS(=O)(=O)C1)Cc1c(Cl)cccc1Cl (stereo not shown) [Compound 64] | 71% | 3780 | 
O=C(c1cc(C(F)(F)F)n[nH]1)N(Cc1ccccc1F)CC1CCOC1 (stereo not shown) [Compound 150] | 68% | 16000 | 
O=C(c1cc(C(F)(F)F)n[nH]1)N(CCN1CCC(F)(F)CC1)Cc1ccccc1Cl [Compound 205] | 100% | 2050 | 
O=C(c1cc(C(F)(F)F)n[nH]1)N(Cc1ccccc1F)CC1CCOCC1 [Compound 45] | 52% | 25100 | 
O=C(c1cc(C(F)(F)F)n[nH]1)N(CCOC1CCCC1)Cc1ccccc1F [Compound 39] | 30% | 47000 | 
CCc1nn2c(=O)cc(Cn3cnc4ccccc43)nc2s1 [PP19] |  | 4760 | 
CCOCCN(Cc1ccccc1Cl)C(=O)c1cc(C(F)(F)F)n[nH]1 [Compound 29] | 87% |  | 
COc1ccc(N)cc1CN(CCN1CCCCCC1)C(=O)c1cc(C(F)(F)F)n[nH]1 [Compound 215] | 100% | 1190 | 
O=C(c1cc(Cl)n[nH]1)N(Cc1ccncc1F)CC1CCC1 [Compound 116] |  | 38000 | 
CCN(CC)CCCN(Cc1ccccc1Cl)C(=O)c1cc(C(F)(F)F)n[nH]1 [Compound 185] | 53% | 1750 | 
O=C(c1cc(C(F)(F)F)n[nH]1)N(Cc1ccc(O)cc1F)C1CCCC1 [Compound 132] | 100% | 213 | 

From patent US20200237766A1, “PKM2 ACTIVATORS IN COMBINATION WITH REACTIVE OXYGEN SPECIES FOR TREATMENT OF CANCER” (TOLERO PHARMACEUTICALS, INC., priority 2017, published 2020)
